The source of these data is patent US8530680B2, “System and method for controlling growth of microorganisms with brominated furanones” (Syracuse University, priority 2008, dated 2013).

The assay has as its system orf19.2175 (CPD1) expression in C. albicans. As to the kind of experiment: RNA dot blotting of C. albicans genes after BF1 treatment. Type of assay: cell-based, Candida albicans. The following applies: 3 μg/mL BF1. The procedure:
To corroborate the microarray results, four genes were checked with RNA dot blotting for their expression levels under the same conditions tested in microarray analysis: orf19.5604 (MDR1), orf19.2175 (CPD1), orf19.2896 (SOU1) and orf19.5565. The total RNA of a control sample without furanone was used to synthesize complementary DNA (cDNA) using OneStep RT-PCR Kit (QIAGEN Inc.) by following the manufacture's protocol. The annealing temperature was optimized based on the primers and was performed at 50° C. for 1 minute in each cycle. The length of the template cDNA was 457 bp, 364 bp, 455 bp and 423 bp for orf19.5604 (MDR1), orf19.2175 (CPD1), orf19.2896 (SOU1) and orf19.5565, respectively.
The DNA probes labeled with Digoxigenin (DIG)-dUTP were then generated using the same primer sets and PCR DIG Probe Synthesis Kit (Roche® Applied Science, Mannheim, Germany) by following the manufacture's protocol except that the annealing temperature was 48° C. for orf19.2175 and orf19.5565, and 51° C. for orf19.2896 and orf19.5604. Total RNA was isolated from cultures treated under the same conditions as in DNA microarray experiments. […] The light signal was recorded using Biomax X-ray films from Kodak (Rochester, N.Y.). […]

Molecules are shown by their SMILES.

Take `CCCCC1=C(Br)/C(=C/Br)OC1=O` [BF1, 4-bromo-5Z-(bromomethylene)-3-butylfuran-2-one]: the “induction of gene CPD1 in RNA dot blotting” value came out at 10 fold.
